Here are results for 1 substance from patent publication US7718613B2, “Armed peptides” (priority 2001, dated 2010).

The nature of data set [1]: Liposome-peptide integral complex: pH-triggered calcein release and stability. The text has this:
A fatty acid incorporated on the N-terminal of peptide anchors the sequence with liposomes to form integral complex which can then be used as single stable reagent that can be triggered to release the contents-of the liposomoes when the pH is ideal (i.e physiological 7.4) or acidic (e.g 6.2). In the first instance we prepared the liposome-peptide complex at a predetermined ratio of lipid-to peptide (30:1) in pH 8 buffer using peptide 10. […] The complex between liposomes and peptide was formed by adding peptide to […] of 10 mM NaP containing 140 mM NaCl, 1 mM EDTA, 5 mM Hepes pH 8 buffer, containing 100 μl of calcein encapsulating liposomes. The mixture was incubated for 20 mins to form the complex prior to use. In order to ascertain that the lysis is occurring due to the formation of complex and not as the action of the peptide per se it was essential to purify the liposome-peptide complex. The peptide to lipid ratio in this complex is 1:30. The complex was applied to a Sepharose CL-6B column. Fractions corresponding to liposomes were collected as clearly visible to the eye. Aliquots of these fractions were then tested for lytic activity at acidic and physiological pH values. The key aim was to establish that the peptide is liposome associated and would thus be eluted with liposome fraction in the void volume. We used 100 μl complex (a column purified fraction) and followed the release of Calcein at two different pH values.
FIG. 8A. […] Upper curve pH 5.8. Lower curve pH 7.4.
2 ml buffer (10 mM Na phosphate, 140 mM NaCl, 1 mM EDTA, 5 mM HEPES)+50 μl purified complex. Lipsomes used were 50 nm extruded. Curves top to bottom are pH 6.2, 6.4, 6.7, 7.0, 7.4
Complex 20 μl liposomes+60 μl pH 8 buffer+20 μl peptide (0.1 mg/ml) prepared and used within 2 minutes. 10 μl was added to each of the cuvettes containing 2 ml buffers. Top curve pH 6.2 (triton was added towards the end indicated by sharp dip in fluorescence to check full lysis), the lower curve is at pH 7.4. Samples measured simultaneously.
5 μL of complex in 2 ml of buffer tested 20 minutes after preparation. Upper curve pH 6.2, Lower curve pH 7.4.
5 μL of complex in 2 ml of buffer tested 5 hrs after preparation. Upper curve pH 6.2 and lower curve pH 7.4.
5 μL of complex in 2 ml of buffer tested 24 hrs after preparation curve pH 6.2, Lower curve pH 7.4.

Data set [2] is described as follows: Cytolytic activity of pH-responsive peptides on calcein liposomes at different pH. To be noted: liposomes 4 μM lipid; 14 nM peptide 2, 20 nM peptide 7, 45 nM peptide 9; FIG. 4. The procedure: Liposomes encapsulating calcein dye were prepared by an extrusion method (Biochim. Biophys. Acta, 812 (1985) 55). Phophatidylcholine (50 mg) and cholesterol (13.08 mg) which had been dissolved in 4 ml of 50% v/v chloroform methanol solution were evaporated to form a lipid film in a round bottom flask. If it is essential to follow the fate of liposomes a lipohilic-dye such as DiI (50 μg) could be incorporated into the lipid film prior to hydration. The film was then hydrated with 4 ml of 120 mM calcein solution prepared in 10 mM sodium phosphate 20 mM Sodium chloride buffer pH 7.4. Liposomes were formed by 10 extrusion cycles through 0.2 micron or 0.1 um polycarbonate filters using the Liposofast 100 (Avestin) extruder device. The non encapsulated dye was removed by gel filtration on a PD-10 column using iso-osmotic buffer. The total lipid concentration of the liposomes was measured by the Stewart assay and adjusted to 3 mg per ml.
The cytolytic activity of pH-responsive peptides was followed by adding 2 or 3 μl of liposomes to a 2 ml assay volume and continually recording fluorescence. Buffers were made of 10 mM Na phosphate, 140 mM NaCl, 1 mM EDTA, 5 mM HEPES at several different pH values. […] In the experiments 2 ml of 10 mM Na phosphate, 140 mM NaCl, 1 mM EDTA, 5 mM HEPES buffer (at pH values indicated on the figure) containing liposomes (4 μM lipid) and (A) 14 nM peptide 2, (B) 20 nM peptide 7 (C) 45 nM peptide 9. In all cases peptides were added indicated by sharp dip in fluorescence were used. The pH values are as indicated for each trace. […] In general, it is well documented that many proteins including receptors, enzymes and antibodies has pH optimum usually closer to physiological value. On either side of the pH optimum the binding activity is reduced. However in general as activity profile is typically bell shape most proteins would tolerate at least a pH unit shift from optimum. Obviously the closer the results are to pH 7.4 the higher chances their are for efficient binding with target proteins or receptors.

Data set [3] concerns KHT tumour. The data set can be described thus: Ex vivo release of calcein in tumour slices after i.v. peptide liposome complex. Also on record: species or system C3H mice. To be noted: 200 μl complex i.v., tumours excised 3 hrs post inoculum, buffer pH 8 changed to pH 5.8; FIG. 11. The procedure:
Liposomes encapsulating Calcein (120 mM) and with label DiI (the dye to lipid ratio was around 100 μg dye: 100 mg PC) were used. C3H syngenic mice 8-10 weeks old weighing 20-25 g were used. Subcutaneous tumour was implanted using KHT cells (5×10^6 cells/animal) on the dorsal side after shaving the mice. Typically 200 μl of peptide liposome complex (100 μl of dual dye liposomes+100 μl of peptide 0.1 mg/ml) were administered intravenously per mice and tumours excised 3 hrs post inoculum. The tumour was removed aseptically and kept in PBS pH 8.0 buffer and thin sections (160 μm-200 μm) were cut on the slicing machine, and examined under a fluorescence microscope. The pH of the buffer was modulated by adding 400 μl of NaP buffer pH 5.8 while simultaneously removing 400 μl of pH 8 buffer. Changes in fluorescence intensity were recorded. The state of liposome peptide complex is then determined, whether intact or lysed by measuring fluorescence in tissue slices before-and after incubation in acidic buffer. The increase in fluorescence in the acidic buffer indicates the quantity of liposomes that were still intact and able to respond at the time of sacrifice.

The star is where a group is joined. Myristoyl = CCCCCCCCCCCCCC(=O)*

As to “Myr-WEAALAEALAEALAEHLARALAEALEALAA-Amide (Myristoyl-WEAALAEALAEALAEHLARALAEALEALAA-NH2; SMILES CCCCCCCCCCCCCC(=O)N[C@@H](Cc1c[nH]c2ccccc12)C(=O)N[C@@H](CCC(=O)O)C(=O)N[C@@H](C)C(=O)N[C@@H](C)C(=O)N[C@@H](CC(C)C)C(=O)N[C@@H](C)C(=O)N[C@@H](CCC(=O)O)C(=O)N[C@@H](C)C(=O)N[C@@H](CC(C)C)C(=O)N[C@@H](C)C(=O)N[C@@H](CCC(=O)O)C(=O)N[C@@H](C)C(=O)N[C@@H](CC(C)C)C(=O)N[C@@H](C)C(=O)N[C@@H](CCC(=O)O)C(=O)N[C@@H](Cc1c[nH]cn1)C(=O)N[C@@H](CC(C)C)C(=O)N[C@@H](C)C(=O)N[C@@H](CCCNC(=N)N)C(=O)N[C@@H](C)C(=O)N[C@@H](CC(C)C)C(=O)N[C@@H](C)C(=O)N[C@@H](CCC(=O)O)C(=O)N[C@@H](C)C(=O)N[C@@H](CC(C)C)C(=O)N[C@@H](CCC(=O)O)C(=O)N[C@@H](C)C(=O)N[C@@H](CC(C)C)C(=O)N[C@@H](C)C(=O)N[C@@H](C)C(N)=O) [peptide 9]”, the “stability of the complex” value in data set [1] (calcein/DiI liposomes, tested 20 minutes, 5 hrs and 24 hrs after preparation, pH 6.2 vs 7.4, FIGS. 8D, E, F) is “retention of the pH triggering of properties”. For the same substance, the “triggering properties of complex after purification” value in data set [1] (peptide to lipid ratio 1:300, pH 6.2 to 7.4, FIG. 8B) is “triggering properties are retained”. Further, the “pH of triggering (pH profile of calcein release from liposomes)” value in data set [2] was roughly 7 pH. Moreover, the “release of calcein in tumour slices on acidification” value in data set [3] was “able to trigger release of calcein”.
